Where two headings read alike, the source gives them in different places.
Target: T1, human CB2 receptors (Homo sapiens, UniProt P34972)
T1 construct: expressed in transfected cells; membrane preparations
Test: Affinity for human CB2 cannabinoid receptors: inhibition of [3H]-CP55940 binding to transfected CHO-K1 cell membranes
Conditions: inhibition constant value range, [3H]-CP55940 1 nM, Cheng-Prusoff
Description: The affinity of the compounds of the present invention for the different sub-types of cannabinoid receptors was measured according to procedures analogous to those described hereafter for the human CB2 receptor.
Study of the Affinity of the Compounds for the Human CB2 Cannabinoid Receptors:
The affinity of the compounds of the invention for the human CB2 receptors is determined by measuring the inhibition of the binding of [^3H]-CP55940 to transfected CHO-K1 cell membrane preparations.
The CHO-K1 cells expressing the human CB2 receptors in stable fashion are cultured in an RPMI 1640 medium containing 10% foetal calf serum, 2 mM of glutamine, 100 U/ml of penicillin, 0.1 mg/ml of streptomycin and 0.5 mg/ml of G418. The cells are collected with 0.5 mM of EDTA and centrifuged at 500 g for 5 minutes at 4° C. The pellet is re-suspended in phosphate buffered saline medium (PBS) and centrifuged at 500 g for 5 minutes at 4° C. The pellet is re-suspended in a Tris 50 mM buffer medium at pH 7.4 and centrifuged at 500 g for 5 minutes at 4° C. The cells are lysed by sonication and centrifuged at 39,000 g for 10 minutes at 4° C. The pellet is re-suspended in the Tris 50 mM buffer medium at pH 7.4 and centrifuged at 50,000 g for 10 minutes at 4° C. The membranes obtained in this last pellet are stored at −80° C.
Measurement of the competitive inhibition of the binding of the [^3H]-CP55940 to the CB2 receptors is carried out in duplicate using 96-well polypropylene plates. The cell membranes (10 μg of proteins/well) are incubated with the [^3H]-CP55940 (1 nM) for 60 minutes at 25° C. in a Tris-HCl 50 mM buffer medium, pH 7.4, comprising 0.1% bovine serum albumin (BSA), 5 mM of MgCl2, and 50 μg/ml of bacitracin.
The bound [^3H]-CP55940 is separated from the free [^3H]-CP55940 by filtration through GF/C glass fibre filter plates (Unifilter, Packard) pre-impregnated with 0.1% polyethylenimine (P.E.I.), using a Filtermate 196 (Packard). The filters are washed with Tris-HCl 50 mM buffer, pH 7.4 at 0-4° C. and the radioactivity present is determined using a counter (Packard Top Count).
The specific binding is obtained by subtracting the non-specific binding (determined in the presence of 0.1 μM of WIN55212-2 from the total binding). The data are analyzed by computer-assisted non-linear regression (MDL). For each test, a Cheng-Prusoff correction is made in order to convert the IC50 to the inhibition constant, Ki.
where [L] is the concentration of the radioligand used in the test and Kd is the radioligand equilibrium dissociation constant.

T1 sequence (P34972 whole entry): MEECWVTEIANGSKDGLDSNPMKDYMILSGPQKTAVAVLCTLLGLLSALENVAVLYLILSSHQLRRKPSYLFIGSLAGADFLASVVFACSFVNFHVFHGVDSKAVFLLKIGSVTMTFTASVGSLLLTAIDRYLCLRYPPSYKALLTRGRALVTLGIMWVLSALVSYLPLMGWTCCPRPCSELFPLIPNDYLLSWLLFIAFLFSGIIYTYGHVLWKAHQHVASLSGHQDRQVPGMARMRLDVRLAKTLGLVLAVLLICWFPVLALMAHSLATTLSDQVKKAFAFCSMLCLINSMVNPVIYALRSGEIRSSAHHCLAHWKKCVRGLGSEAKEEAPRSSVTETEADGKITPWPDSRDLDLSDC

Structure (SMILES) | Ki (read-out: Ki < 5 μM) | Ki (read-out: Ki < 0.5 μM)
O=c1c2sccc2nc(-c2ccc(-c3ccccc3)cc2)n1CCc1ccncc1 [Example 15] | < 5 µM | < 0.5 µM
O=c1c2sccc2nc(-c2ccc(C3CCCCC3)cc2)n1CCC1CCCCC1 [Example 16] | < 5 µM | < 0.5 µM
O=c1c2sccc2nc(-c2ccc(C3CCCCC3)cc2)n1CCC1CCOCC1 [Example 17] | < 5 µM | < 0.5 µM
O=c1c2sccc2nc(-c2ccc(C3CCCCC3)cc2)n1CCc1ccccc1 [Example 18] | < 5 µM | < 0.5 µM
O=c1c2sccc2nc(-c2ccc(-c3cccs3)cc2)n1CCC1CCOCC1 [Example 19] | < 5 µM | 
O=c1c2sccc2nc(-c2ccc(-c3cccs3)cc2)n1CCc1ccccc1 [Example 20] | < 5 µM | < 0.5 µM
O=c1c2sc3ccccc3c2nc(-c2ccc(-c3ccccc3)cc2)n1CCC1CCOCC1 [Example 22] | < 5 µM | 
O=c1c2sccc2nc(-c2ccc(-c3ccccc3)cc2)n1CCN1CCCCC1 [Example 24] | < 5 µM | < 0.5 µM
O=C1c2ccccc2C(=O)c2cc(-c3nc4ccsc4c(=O)n3CCN3CCCCC3)ccc21 [Example 25] | < 5 µM | < 0.5 µM
O=c1c2sccc2nc(-c2ccc(-c3ccccc3)cc2)n1CCN1CCCC1 [Example 26] | < 5 µM | < 0.5 µM
O=c1c2sccc2nc(-c2ccc(-c3ccccc3)cc2)n1CCN1CCOCC1 [Example 27] | < 5 µM | < 0.5 µM
O=C(c1ccccc1)c1ccc(-c2nc3ccsc3c(=O)n2CCN2CCCCC2)cc1 [Example 29] | < 5 µM | < 0.5 µM
O=C(c1ccccc1)c1ccc(-c2nc3ccsc3c(=O)n2CCN2CCOCC2)cc1 [Example 30] | < 5 µM | < 0.5 µM
O=c1c2sccc2nc(-c2ccc(Cc3ccccc3)cc2)n1CCN1CCCCC1 [Example 32] | < 5 µM | < 0.5 µM
O=c1c2sccc2nc(-c2ccc(-c3ccccc3)cc2)n1CCN1CCCCCC1 [Example 34] | < 5 µM | < 0.5 µM
O=c1c2sccc2nc(-c2ccc(C3CCCCC3)cc2)n1CCN1CCCC1 [Example 35] | < 5 µM | < 0.5 µM
O=c1c2sccc2nc(-c2ccc(C3CCCCC3)cc2)n1CCN1CCCCC1 [Example 36] | < 5 µM | < 0.5 µM
O=c1c2sccc2nc(-c2ccc(C3CCCCC3)cc2)n1CCN1CCOCC1 [Example 37] | < 5 µM | < 0.5 µM
O=c1c2sccc2nc(-c2ccc(C3CCCCC3)cc2)n1CCN1CCCCCC1 [Example 38] | < 5 µM | < 0.5 µM

Other lines, results leading:

Ki (read-out: Ki < 5 μM) | Ki (read-out: Ki < 0.5 μM) | Structure (SMILES)
< 5 µM |  | COc1ccccc1CCn1c(-c2ccc(-c3ccccc3)cc2)nc2ccsc2c1=O [Example 1]
< 5 µM |  | COc1ccc(CCn2c(-c3ccc(-c4ccccc4)cc3)nc3ccsc3c2=O)cc1OC [Example 2]
< 5 µM |  | O=c1c2sccc2nc(-c2ccc(-c3ccccc3)cc2)n1CCc1cccs1 [Example 3]
< 5 µM | < 0.5 µM | O=c1c2sccc2nc(-c2ccc(-c3ccccc3)cc2)n1CCc1ccc(Cl)cc1Cl [Example 6]
< 5 µM | < 0.5 µM | O=c1c2sccc2nc(-c2ccc(-c3ccccc3)cc2)n1CCc1ccc(Cl)c(Cl)c1 [Example 7]
< 5 µM |  | Cc1ccccc1CCn1c(-c2ccc(-c3ccccc3)cc2)nc2ccsc2c1=O [Example 8]
< 5 µM |  | Cc1ccc(CCn2c(-c3ccc(-c4ccccc4)cc3)nc3ccsc3c2=O)cc1C [Example 9]
< 5 µM | < 0.5 µM | O=c1c2sccc2nc(-c2ccc(-c3ccccc3)cc2)n1CCC1CCCCC1 [Example 11]
< 5 µM | < 0.5 µM | O=c1c2sccc2nc(-c2ccc(-c3ccccc3)cc2)n1CCC1CCOCC1 [Example 12]
< 5 µM | < 0.5 µM | O=c1c2sccc2nc(-c2ccc(-c3ccccc3)cc2)n1CCc1ccccc1 [Example 13]
< 5 µM |  | O=c1c2sccc2nc(-c2ccc(-c3ccccc3)cc2)n1CCc1cccnc1 [Example 14]

From patent publication US20090325933A1, “Pyrimidinone Derivatives and Their Use as a Drug” (Ipsen Pharma S.A.S., priority 2006, published 2009)
